In article PMC7754465, “Multiparameter Kinetic Analysis for Covalent Fragment Optimization by Using Quantitative Irreversible Tethering (qIT)” (Chembiochem, 2020):
“Also recorded” adds a separate entry of the source.

Target: T1, pCdk2(ES)/cyclin A holoenzyme (Homo sapiens, UniProt P24941, C177A/F80C)
T1 construct: GST (N, cleaved yes); made in house; host or cells: E. coli Tuner(DE3); Cdk2 phosphorylated in vitro with GST-CAK1 (S. cerevisiae)
Assay: spectrophotometric coupled (LDH/PK) kinase assay after labelling and dialysis
Assay type: biochemical
Conditions: treatment with 0.5 mM acrylamide, then dialysis to remove ligand
Text: Next we undertook biochemical validation of the electrophile sensitive approach using a spectrophotometric kinase assay. In this experiment the activity of Cdk2 is activated both by phosphorylation and interaction with cyclin A. The catalytic turnover of ATP is coupled to the oxidation of NADH by lactate dehydrogenase (LDH) and pyruvate kinase (PK), which is monitored by absorbance at 340 nm.
H. Intact-protein mass spectrometry
Protein-mass data were obtained on a Waters micromass LC-TOF mass spectrometer in positive ion mode using electrospray ionization. Samples were chromatographed using an Acquity UPLC protein BEH C4 column (2.1 mm × 50 mm, 2.7 µm) with a flow rate of 30 µL/min. The injection volume was 5 µL of protein solution (5 µM) in 30 mM ammonium bicarbonate buffer con-taining 0.5% formic acid and 20% MeOH. The gradient used was 100% mobile phase A (0.1% formic acid in water/MeOH (19:1)) ramping linearly to 90% mobile phase B (0.1% formic acid in MeOH) over 5 minutes. […]
4EK3) and the model was iteratively refined using Phenix.Refine[13] with manual modelling and adjustments carried out in COOT[14]. […] Electron density maps were calculated using FFT[17] and figures were prepared using PyMol (Schrö dinger). […]

SMILES | inhibition of kinase activity
C=CC(=O)Nc1ccc(-c2ncccn2)cc1 [S1] | complete irreversible inhbition
C=CC(=O)N1CCCc2cc(C(=O)OC)ccc21 [compound 1] | complete irreversible inhbition; also recorded: complete inhibition
